In assay [1] the test system is HIV-1SQV5μM. The assay is described as follows: microbe, parasite or virus in culture. Format: cell-based. To be noted: for IC50: Human immunodeficiency virus 1, MT4, read-out: IC50 against HIV-1SQV5μM; for fold change of IC50, HIV-1SQV5μM: compared to wild-type HIV-1NL4-3. The method, then:
(§1) Drug susceptibility assay. The susceptibility of HIV-1LAI, HIV-2EHO, HIV-2ROD, to various drugs and the cytotoxicity of those drugs was determined by using the MTT assay. Briefly, MT-2 cells (2×10^4/mL) were exposed to 100 TCID50s (50% tissue culture infectious doses) of HIV-1LAI, HIV-2EHO, or HIV-2ROD in the presence or absence of various concentrations of drugs in 96-well microculture plates and were incubated at 37° C. for 7 days. After 100 μL of the medium was removed from each well, 3-(4,5-dimethylthiazol-2-yl)-2,5-diphenyltetrazolium bromide (MTT) solution (10 μL, 7.5 mg/mL in phosphate-buffered saline) was added to each well in the plate, followed by incubation at 37° C. for 4 hours. […] All assays were performed in duplicate or triplicate. To determine the sensitivity of HIV-1Ba-L, HIV-1ERS104 pre, and clinical multi-drug-resistant HIV-1 isolates and different subtypes of HIV-1 isolates to drugs, phytohemagglutinin-activated peripheral blood mononuclear cells (PHA-PBMs; 10^6/mL) were exposed to 50 TCID50 (50% tissue infectious dose) of each HIV-1 isolate and cultured in the presence or absence of various concentrations of drugs in 10-fold serial dilutions in 96-well microtiter culture plates. To determine the drug susceptibility of certain laboratory HIV-1 strains (HIV-1NL4-3), MT-4 cells were used as target cells. MT-4 cells (10^5/mL) were exposed to 100 TCID50 of wild type HIV-1NL4-3 and PI-resistant HIV-1NL4-3 in the presence or absence of various concentrations of drugs and were incubated at 37° C. On day 7 of culture, the supernatant was harvested and the amount of p24 Gag protein was determined by using a fully automated chemiluminescent enzyme immunoassay system (Lumipulse F; Fujirebio Inc., Tokyo, Japan) (22). […] All assays were performed in duplicate or triplicate.
(§2) Generation of PI-resistant HIV-1 in vitro. MT-4 cells (10^5/mL) were exposed to HIV-1NL4-3 (500 TCID50) and cultured in the presence of various PIs at an initial concentration of its IC50 values. Viral replication was monitored by determination of the amount of p24 Gag produced by MT-4 cells. The culture supernatants were harvested on day 7 and used to infect fresh MT-4 cells for the next round of culture in the presence of increasing concentrations of each drug. […] Proviral DNA samples obtained from the lysates of infected cells were subjected to nucleotide sequencing. This drug selection procedure was carried out until the drug concentration reached 1 or 5 μM.

The test system of assay [2] is HIV-1LPV1μM. As to the kind of experiment: microbe, parasite or virus in culture. It counts as cell-based. To be noted: for IC50: Human immunodeficiency virus 1, MT4, read-out: IC50 against HIV-1LPV1μM; for fold change of IC50, HIV-1LPV1μM: compared to wild-type HIV-1NL4-3. The procedure:
as §1, §2

For assay [3], the system named is HIV-1NFV5μM. As to the kind of experiment: microbe, parasite or virus in culture. Format: cell-based. To be noted: for IC50: Human immunodeficiency virus 1, MT4, read-out: IC50 against HIV-1NFV5μM; for fold change of IC50, HIV-1NFV5μM: compared to wild-type HIV-1NL4-3. The procedure: as §1, §2
Assay [4] concerns HIV-1APV5μM. The assay is described as follows: microbe, parasite or virus in culture. It counts as cell-based. To be noted: for IC50: Human immunodeficiency virus 1, MT4, read-out: IC50 against HIV-1APV5μM; for fold change of IC50, HIV-1APV5μM: compared to wild-type HIV-1NL4-3. The method, then: as §1, §2
Assay [5] has as its system HIV-1RTV5μM. The assay is described as follows: microbe, parasite or virus in culture. Format: cell-based. To be noted: for IC50: Human immunodeficiency virus 1, MT4, read-out: IC50 against HIV-1RTV5μM; for fold change of IC50, HIV-1RTV5μM: compared to wild-type HIV-1NL4-3. The procedure:
as §1, §2

Assay [6] has as its system HIV-1ATV1μM. As to the kind of experiment: microbe, parasite or virus in culture. It counts as cell-based. Conditions: for IC50: Human immunodeficiency virus 1, MT4, read-out: IC50 against HIV-1ATV1μM; for fold change of IC50, HIV-1ATV1μM: compared to wild-type HIV-1NL4-3. The method, then:
as §1, §2

In assay [7] the test system is HIV-1IDV5μM. The assay is described as follows: microbe, parasite or virus in culture. Format: cell-based. To be noted: for IC50: Human immunodeficiency virus 1, MT4, read-out: IC50 against HIV-1IDV5μM; for fold change of IC50, HIV-1IDV5μM: compared to wild-type HIV-1NL4-3. The method, then: as §1, §2
The subject of assay [8] is Ba-L (B-R5). As to the kind of experiment: p24 Gag production inhibition, PHA-PBMs, subtype B Ba-L. It counts as cell-based, HIV-1. To be noted: Human immunodeficiency virus 1, BAL, read-out: IC50 against Ba-L (B-R5). The method, then: as §1
(§3) The IC50 values were determined by using PHA-PBMs as target cells and the inhibition of p24 Gag protein production by each drug was used as an endpoint. All assays were conducted in duplicate, and the data shown represent mean values (±1 standard deviations) derived from the results of two or three independent experiments.

The subject of assay [9] is multi-drug-resistant clinical HIV-1 variants. The assay is described as follows: p24 assay, PHA-PBMs, panel of multi-drug-resistant clinical HIV-1 isolates. Format: cell-based. Conditions: Human immunodeficiency virus 1, read-out: IC50 against multi-drug-resistant clinical HIV-1 strains, PHA-PBMs, p24 production. The procedure: as §1
The amino acid substitutions identified in the protease-encoding region of HIV-1ERS104pre, HIV-1TM, HIV-1MM, HIV-1JSL, HIV-1B, HIV-1C, HIV-1G compared to the consensus type B sequence cited from the Los Alamos database include L63P; L10I, K14R, R41K, M46L, I54V, L63P, A71V, V82A, L90M; I93L; L10I, K43T, M46L, I54V, L63P, A71V, V82A, L90M, Q92K; L10I, L24I, I33F, E35D, M36I, N37S, M46L, I54V, R57K, I62V, L63P, A71V, G73S, V82A; L10I, K14R, L33I, M36I, M46I, F53I, K55R, I62V, L63P, A71V, G73S, V82A, L90M, I93L; L10I, I15V, K20R, L24I, M36I, M46L, I54V, I62V, L63P, K70Q, V82A, L89M; and L10I, V11I, T12E, I15V, L19I, R41K, M46L, L63P, A71T, V82A, L90M, respectively. HIV-1ERS104pre served as a source of wild-type HIV-1. The IC50 values were determined by using PHA-PBMs as target cells and the inhibition of p24 Gag protein production by each drug was used as an endpoint. The numbers in parentheses represent the fold changes of IC50 values for each isolate compared to the IC50 values for wild-type HIV-1ERS104pre. All assays were conducted in duplicate or triplicate, and the data shown represent mean values (±1 standard deviations) derived from the results of three independent experiments.

For assay [10], the system named is 92TH019 (E-R5). The assay is described as follows: p24 Gag production inhibition, PHA-PBMs, subtype E isolate 92TH019. Format: cell-based, HIV-1. To be noted: Human immunodeficiency virus 1, read-out: IC50 against 92TH019 (E-R5). The method, then: as §1, §3

Each structure is given as a SMILES string. Like-named read-outs stand apart in the source and are kept apart here.

Usually IC50 stands for the concentration that inhibits the measured activity by half.

On to `CC(C)(C)NC(=O)[C@@H]1C[C@@H]2CCCC[C@@H]2CN1C[C@@H](O)[C@H](Cc1ccccc1)NC(=O)[C@H](CC(N)=O)NC(=O)c1ccc2ccccc2n1` [SQV, Saquinavir], for which the 50% inhibitory concentration (IC50) in assay [1] was > 1000 nM; in assay [2], 32 ± 2 nM; in assay [3], 24 ± 8 nM; in assay [4] it was 31 ± 4 nM; in assay [5], 10 ± 8 nM; in assay [6], 37 ± 4 nM. Besides, the concentration for half-maximal inhibition (IC50) is 59 ± 4 nM in [7], 8.3 ± 0.5 nM in assay [8], 140 to 290 nM in [9] and 3 ± 0.1 nM in [10]. In addition, the “fold change of IC50, HIV-1SQV5μM” value in assay [1] was > 143. The “fold change of IC50, HIV-1LPV1μM” value in [2] is 5. Moreover, the “fold change of IC50, HIV-1NFV5μM” value in [3] is 3. In assay [4], the “fold change of IC50, HIV-1APV5μM” value was determined as 4. Further, the “fold change of IC50, HIV-1RTV5μM” value in assay [5] came out at 1. The “fold change of IC50, HIV-1ATV1μM” value in [6] was found to be 5. The “fold change of IC50, HIV-1IDV5μM” value in assay [7] was 8.
For the molecule `Cc1c(O)cccc1C(=O)N[C@@H](CSc1ccccc1)[C@H](O)CN1C[C@H]2CCCC[C@H]2C[C@H]1C(=O)NC(C)(C)C` [NFV, Nelfinavir], the IC50 in assay [8] (PHA-PBMs, p24 Gag production) is 18 ± 4 nM; in [9], > 1000 nM; in assay [10], 29 ± 4 nM.
On to `CC(C)CN(CC(O)C(Cc1ccccc1)NC(=O)OC1COC2OCCC12)S(=O)(=O)c1ccc2c(c1)OCO2` (centres unmarked) [GRL-98065], for which the IC50 in assay [1] came to 6 ± 3 nM; in [2], 7.5 ± 0.3 nM; in assay [3], 2.4 ± 0.8 nM; in assay [4] it was 32 nM; in assay [5], 2.5 ± 0.3 nM; in assay [6], 1.5 ± 0.9 nM. The IC50 in assay [7] was 3.7 ± 0.7 nM; in assay [8] (PHA-PBMs, p24 Gag production) it was 0.2 ± 0.1 nM; in assay [9], ≤ 6 nM; in assay [10] it was 0.3 ± 0.1 nM. Also, the “fold change of IC50, HIV-1SQV5μM” value in assay [1] came out at 20. For the same molecule, the “fold change of IC50, HIV-1LPV1μM” value in assay [2] came out at 25. Further, in assay [3], the “fold change of IC50, HIV-1NFV5μM” value is 8. Further, in assay [4], the “fold change of IC50, HIV-1APV5μM” value was found to be 107. In addition, the “fold change of IC50, HIV-1RTV5μM” value in assay [5] was 8. The “fold change of IC50, HIV-1ATV1μM” value in assay [6] is given as 5. The “fold change of IC50, HIV-1IDV5μM” value in assay [7] is listed as 12.
As for `CC(C)CN(C[C@@H](O)[C@H](Cc1ccccc1)NC(=O)O[C@H]1CCOC1)S(=O)(=O)c1ccc(N)cc1` [APV, Amprenavir], the IC50 in [1] was 330 ± 30 nM; in assay [2] it was 310 ± 20 nM; in assay [3], 60 ± 4 nM; in assay [4], > 1000 nM; in [5], 280 ± 20 nM; in assay [6] it was 200 ± 70 nM. For the same molecule, the 50% inhibitory concentration (IC50) came out at 170 ± 10 nM in assay [7]; 25 ± 6 nM in [8] (PHA-PBMs, p24 Gag production); 21 ± 6 nM in assay [10].
On to `COC(=O)N[C@H](C(=O)N[C@@H](Cc1ccccc1)[C@@H](O)CN(Cc1ccc(-c2ccccn2)cc1)NC(=O)[C@@H](NC(=O)OC)C(C)(C)C)C(C)(C)C` [ATV, Atazanavir], for which the IC50 in [1] was found to be 326 ± 1 nM; in [2], 40 ± 2 nM; in assay [3] it was 21 ± 6 nM; in assay [4] it was 3 ± 1 nM; in assay [5] it was 18 ± 8 nM; in [6] it was 330 nM. Also, the IC50 in assay [7] stood at 60 ± 20 nM; in assay [8] (PHA-PBMs, p24 Gag production), 1.3 ± 0.4 nM; in [10], 2.7 ± 0.1 nM. Besides, the “fold change of IC50, HIV-1SQV5μM” value in [1] stood at 78. In addition, the “fold change of IC50, HIV-1LPV1μM” value in assay [2] was determined as 10. The “fold change of IC50, HIV-1NFV5μM” value in [3] was 5. The “fold change of IC50, HIV-1APV5μM” value in [4] is given as 1. Further, the “fold change of IC50, HIV-1RTV5μM” value in assay [5] is 4. Further, the “fold change of IC50, HIV-1ATV1μM” value in assay [6] is reported as 79. In addition, the “fold change of IC50, HIV-1IDV5μM” value in assay [7] stood at 14.
On to `CC(C)(C)NC(=O)[C@@H]1CN(Cc2cccnc2)CCN1C[C@@H](O)C[C@@H](Cc1ccccc1)C(=O)N[C@H]1c2ccccc2C[C@H]1O` [IDV, indinavir], for which the half-maximal inhibitory concentration (IC50) in [1] was > 1000 nM; in assay [2], > 1000 nM; in assay [3], 270 ± 50 nM; in assay [4], 200 ± 7 nM; in assay [5], 250 ± 10 nM; in [6], 388 ± 1 nM. Further, the IC50 was > 1000 nM in assay [7]; 22 ± 5 nM in assay [8] (PHA-PBMs, p24 Gag production); > 1000 nM in [9]; 21 ± 1 nM in assay [10].
`Cc1cccc(C)c1OCC(=O)N[C@@H](Cc1ccccc1)[C@@H](O)C[C@H](Cc1ccccc1)NC(=O)[C@H](C(C)C)N1CCCNC1=O` [LPV, lopinavir]: the IC50 is 5.3 ± 0.4 nM in [8] (PHA-PBMs, p24 Gag production) and 3.3 ± 0.5 nM in assay [10].
On to `CC(C)c1nc(CN(C)C(=O)N[C@H](C(=O)N[C@@H](Cc2ccccc2)C[C@H](O)[C@H](Cc2ccccc2)NC(=O)OCc2cncs2)C(C)C)cs1` [RTV, ritonavir], for which the IC50 in assay [8] (PHA-PBMs, p24 Gag production) is 23 ± 6 nM; in [9], > 1000 nM; in assay [10], 30 ± 9 nM.
